Results taken from PubChem BioAssay (NCI).
Where “and” joins values, the source holds several entries; their conditions need not be identical. Identical values can stand only once.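 48-hour exposure; five concentrations; linearly interpolated endpoints. GI50: concentration for 50% inhibition of growth. TGI denotes the concentration required for complete inhibition of growth.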

Legend:
Assay in all cases: NCI-60 cell line screen, 48 h
[1] = system: COLO 205 colon
[2] = system: HCT-15 colon
[3] = system: KM12 colon
[4] = system: M14 melanoma
[5] = system: NCI-H226 lung
[6] = system: NCI-H460 lung
[7] = system: OVCAR-8 ovarian
[8] = system: SW-620 colon
[9] = system: TK-10 renal
[10] = system: UACC-62 melanoma

SMILES	TGI [1]	TGI [2]	TGI [3]	TGI [4]	TGI [5]	TGI [6]	TGI [7]	TGI [8]	TGI [9]	TGI [10]	GI50 [1]	GI50 [2]	GI50 [3]	GI50 [4]	GI50 [5]	GI50 [6]	GI50 [7]	GI50 [8]	GI50 [9]	GI50 [10]
CCOC(=O)C#Cc1ccccc1	25.9 µM	> 100 µM	31.2 µM	39.1 µM	> 100 µM	> 100 µM	> 100 µM	31.2 µM	59.9 µM	32.5 µM										
CCCCn1c(-c2ccc([N+](=O)[O-])cc2)cs/c1=N/N=C1\C(=O)Nc2ccc(Br)cc21	28.7 µM	> 100 µM	38.2 µM	27.1 µM	38.3 µM	38.3 µM	> 100 µM	> 100 µM	34 µM	76.1 µM										
COc1ccc(CN2C3CC2CN(c2ccc(-c4cc(OCC(C)(C)O)cn5ncc(C#N)c45)cn2)C3)cn1	> 100 µM	> 100 µM	> 100 µM	> 100 µM	> 100 µM	> 100 µM	> 100 µM	> 100 µM	> 100 µM	> 100 µM	2.99 µM	37.2 µM	> 100 µM	24.2 µM	1.66 µM	15.9 µM	13.2 µM	4.49 µM	10.5 µM	> 100 µM
CO[C@@H]1O[C@H](C(=O)c2ccccc2)[C@H]2OC(C)(C)O[C@@H]12	> 100 µM	> 100 µM	> 100 µM	> 100 µM	> 100 µM	> 100 µM	> 100 µM	> 100 µM	> 100 µM	> 100 µM										
CC(C)OC(=O)OCSc1ccccc1N=Cc1cccc([N+](=O)[O-])c1	> 10 µM	> 10 µM	> 10 µM	> 10 µM	> 10 µM	> 10 µM	> 10 µM	> 10 µM	> 10 µM	> 10 µM										
S=c1cc(-c2ccc3c(c2)OCO3)s[nH]1	> 100 µM	> 100 µM	> 100 µM	> 100 µM	> 100 µM	> 100 µM	> 100 µM	> 100 µM	> 100 µM	> 100 µM										
Cc1cnc2c(c1)C(=O)C1=C(C2=O)C2OC(=O)CC2OC1(C)C (centres undefined)	0.326 µM	0.202 µM	1.73 µM	0.824 µM	2.31 µM	2.28 µM	2.19 µM	0.768 µM	1.95 µM	0.351 µM										
C\C(=N/N=C1/C(=C\N(C)C)C(=O)NC(=O)N1C)c1ccc(Cl)cc1	> 100 µM	> 100 µM	> 100 µM	> 100 µM	> 100 µM	> 100 µM	> 100 µM	> 100 µM	> 100 µM	> 100 µM										
O=[N+]([O-])c1ccc2c(c1)C1=NN(c3ccccc3)C(c3ccccc3Br)C1CCC2 (centres undefined)	> 50 µM	> 50 µM	> 50 µM	> 50 µM	> 50 µM	> 50 µM	> 50 µM	> 50 µM	> 50 µM	34.4 µM										
CCC(C(=O)C(=O)OC)P1(=O)OC(C)(C)CN1C(C)(C)C (centres undefined)	> 100 µM	> 100 µM	> 100 µM	> 100 µM	> 100 µM	> 100 µM	> 100 µM	> 100 µM	> 100 µM	60.4 µM										
O=C(Nc1noc(-c2ccccc2)n1)c1ccccc1CNc1noc(-c2ccccc2)n1	> 100 µM	> 100 µM	> 100 µM	> 100 µM	> 100 µM	> 100 µM	> 100 µM	> 100 µM	> 100 µM	> 100 µM										
C1=C\SS/C=C\SS/1	> 100 µM	34 µM	> 100 µM	> 100 µM	> 100 µM	80 µM	49.8 µM	> 100 µM	> 100 µM	> 100 µM										
NC(=O)N/N=C1\CC2C3CC4C2C4C13 (centres undefined)	> 100 µM	> 100 µM	> 100 µM	> 100 µM	> 100 µM	> 100 µM	> 100 µM	> 100 µM	> 100 µM	> 100 µM										
Oc1[nH]c2ccccc2c1N=NC(=S)Nc1ccc(Cl)cc1	> 100 µM	> 100 µM	> 100 µM	45.2 µM	86.4 µM	> 100 µM	98.8 µM	> 100 µM	94.1 µM	> 100 µM										
CC(=O)c1ccc2c(c1)CC1(C2)Cc2ccccc2C1=O (centres undefined)	> 100 µM	> 100 µM	> 100 µM	> 100 µM	> 100 µM	> 100 µM	> 100 µM	> 100 µM	91.4 µM	> 100 µM										
COC1=C(C)C(=O)c2c(c(COC(N)=O)c3n2CC(OC(C)=O)C3OC(C)=O)C1=O (centres undefined)	0.314 µM	0.0692 µM	0.939 µM	0.514 µM	1.39 µM	0.235 µM	0.373 µM	0.166 µM	1.56 µM	0.245 µM										
[O-]/[N+](=C\c1ccccc1OC(=S)S)c1ccc(Cl)cc1	26.7 µM	> 100 µM	> 100 µM	> 100 µM	> 100 µM	> 100 µM	30.2 µM	> 100 µM	> 100 µM	> 100 µM										
CC(C(=O)O)C(C)(O)C(=O)O (centres undefined)	> 100 µM	> 100 µM	> 100 µM	> 100 µM	> 100 µM	> 100 µM	> 100 µM	> 100 µM	> 100 µM	> 100 µM										
CCOP(=O)(/C=C\n1ccc(N)nc1=O)OCC	> 100 µM	> 100 µM	> 100 µM	> 100 µM	> 100 µM	> 100 µM	> 100 µM	> 100 µM	> 100 µM	> 100 µM										
C#CCN(Cc1ccc2nc(OC)c(OC)nc2c1)c1cc(OC)c(OC)c(OC)c1	41.5 µM	> 87.5 µM	54.9 µM	71.2 µM	60.6 µM	> 87.2 µM	64.3 µM	> 100 µM	> 100 µM	> 97.2 µM										
OCc1ccc2c(c1)CC1(Cc3ccc(/C=N/O)cc3C1)C2 (centres undefined)	13.9 µM	> 45.1 µM	19.1 µM	21.6 µM	71 µM	18.9 µM	35.2 µM	> 100 µM	> 100 µM	> 56.1 µM										
C=C(CN(C)C)C(=O)c1ccccc1[N+](=O)[O-]	21.2 µM	27 µM and 12.6 µM	46.1 µM and 37.5 µM	29.6 µM	> 58.3 µM and 47 µM	59.3 µM and 45.1 µM	40.9 µM and 32 µM	31.3 µM	34.3 µM and 26.3 µM	32.9 µM and 31.1 µM		3.34 µM	15.6 µM	6.42 µM	20.9 µM	19.6 µM	6.55 µM		12.9 µM	13.1 µM
CCOC(=O)/C=C(\C(=O)OCC)n1ccc(=O)n(Cc2cn(COCCOC(C)=O)nn2)c1=O	24.2 µM	38 µM	> 54.6 µM	> 100 µM	29.7 µM	> 52.5 µM	31.1 µM	31.4 µM	29.2 µM	38.6 µM										
N#Cc1nc(C2CCC2)oc1N	> 100 µM	> 100 µM	> 100 µM	> 100 µM	> 100 µM	> 100 µM	> 100 µM	> 100 µM	> 100 µM	> 100 µM										
CC(=O)c1cnc2oc3ccc(O)cc3c2c1-c1ccccc1	> 100 µM	> 100 µM	> 100 µM	> 100 µM	> 100 µM	> 100 µM	> 100 µM	> 100 µM	> 100 µM	70.4 µM			40.8 µM							
